Experiments:
Assay type in all cases: cell-based
SST2 = biological target: T1, SST2 (Homo sapiens, UniProt P30874); assay: PathHunter CHO-K1 SST2 internalization assay; conditions: PathHunter CHO-K1 SST2, 90 min; read-out: Internalization EC50
T1 construct: host or cells: PathHunter CHO-K1 SST2 cells
Summary of the method: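 PathHunter CHO-K1 SST2 cells, seeded and grown 48 h, were exposed to 11-point 1:3 dilutions of SMDC (top final 10 uM) for 90 min at 37 C, 5% CO2. Beta-Glo luminescence was read after 60 min at room temperature. Background-corrected duplicate means were fitted by four-parameter nonlinear regression to give IC50.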

[1] = biological target: T2, human somatostatin receptor subtype 2 (Homo sapiens, UniProt P30874); assay: Functional cAMP assay for SSTR2 agonists (HTRF) in CHO-K1 cells; conditions: CHO-K1 cells stably expressing human SST2, 20 min; read-out: hSST2 cAMP Avg EC50
T2 construct: expressed in transfected cells
Summary of the method: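 CHO-K1 cells stably expressing receptor, plated 4 days before assay, treated 20 min at 37° C. with compound (typically 0-10,000 nM final) plus IBMX and 1.6 μM NKH477 to raise cAMP. HTRF read, 665/620 nm ratio; cAMP from standard curve, EC50 fitted.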

[2] = tested on: NCI-H524 (ATCC) human small cell lung cancer cells; conditions: 2 h
Summary of the method: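 NCI-H524 cells (5,000/well) were exposed 24 h after plating to SMDC for 2 h, 11-point two-fold series from 1 uM. After washout they grew a further 70 h. Proliferation was read by CellTiter-Glo luminescence, % inhibition taken vs untreated control, and IC50 fitted by four-parameter nonlinear regression.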

T2 sequence (P30874 whole entry): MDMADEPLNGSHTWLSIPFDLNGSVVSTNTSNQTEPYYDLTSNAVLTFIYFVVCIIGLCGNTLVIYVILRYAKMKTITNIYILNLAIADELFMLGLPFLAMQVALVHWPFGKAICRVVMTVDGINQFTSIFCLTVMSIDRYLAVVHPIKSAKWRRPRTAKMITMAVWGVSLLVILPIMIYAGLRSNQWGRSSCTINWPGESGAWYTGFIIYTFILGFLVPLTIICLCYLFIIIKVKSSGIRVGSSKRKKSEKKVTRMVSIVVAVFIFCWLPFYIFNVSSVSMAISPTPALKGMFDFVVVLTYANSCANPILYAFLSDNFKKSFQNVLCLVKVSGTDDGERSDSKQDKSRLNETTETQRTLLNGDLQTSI
T1 sequence (P30874 whole entry): as above

Row | Compound | EC50 (SST2) | EC50 [1] | EC50 [2]
1 | CC[C@H](C)[C@@H]([C@@H](CC(=O)N1CCC[C@H]1[C@H](OC)[C@@H](C)C(=O)N[C@H](C)[C@@H](O)c1ccccc1)OC)N(C)C(=O)[C@@H](NC(=O)[C@H](C(C)C)N(C)C(=O)OCc1ccc(NC(=O)[C@H](CCCNC(N)=O)NC(=O)[C@@H](NC(=O)CCOCCNC(=O)CN2CCN(CC(=O)O)CCN(CC(=O)NCCOCCOCCOCCOCCC(=O)NCCNc3ncc(-c4cc(C)cc(F)c4)c(N4CCC(N)CC4)c3-c3nc4ccc(Cl)cc4[nH]3)CC2)C(C)C)cc1)C(C)C [Compound 43] | 18.1 nM | 0.29 nM | 82.6 nM
2 | CC[C@@H](C)[C@H]([C@H](CC(=O)N1CCC[C@@H]1[C@@H](OC)[C@H](C)C(=O)N[C@@H](C)[C@H](O)c1ccccc1)OC)N(C)C(=O)C(NC(=O)[C@@H](C(C)C)N(C)C(=O)OCc1ccc(NC(=O)[C@H](CCCNC(N)=O)NC(=O)[C@@H](NC(=O)CCOCCNC(=O)[C@H](CS(=O)(=O)O)NC(=O)CCOCCOCCOCCOCCC(=O)NCCNc2ncc(-c3cc(C)cc(F)c3)c(N3CCC(N)CC3)c2-c2nc3ccc(Cl)cc3[nH]2)C(C)C)cc1)C(C)C (stereo partly drawn) [Compound 44] | 17.2 nM | 0.089 nM | 101 nM
3 | CC[C@H](C)[C@@H]([C@@H](CC(=O)N1CCC[C@H]1[C@H](OC)[C@@H](C)C(=O)N[C@H](C)[C@@H](O)c1ccccc1)OC)N(C)C(=O)[C@@H](NC(=O)[C@H](C(C)C)N(C)C(=O)OCc1ccc(NC(=O)[C@H](CCCNC(N)=O)NC(=O)[C@@H](NC(=O)[C@H](CS(=O)(=O)O)NC(=O)CCOCCOCCOCCOCCC(=O)NCCNc2ncc(-c3cc(C)cc(F)c3)c(N3CCC(N)CC3)c2-c2nc3ccc(Cl)cc3[nH]2)C(C)C)cc1)C(C)C [Compound 45] | 21 nM | 0.12 nM | 32 nM
4 | CC[C@H](C)[C@@H]([C@@H](CC(=O)N1CCC[C@H]1[C@H](OC)[C@@H](C)C(=O)N[C@H](C)[C@@H](O)c1ccccc1)OC)N(C)C(=O)[C@@H](NC(=O)[C@H](C(C)C)N(C)C(=O)OCc1ccc(NC(=O)[C@H](CCCNC(N)=O)NC(=O)[C@@H](NC(=O)CN2CCN(CC(=O)NCCOCCOCCOCCOCCC(=O)NCCNc3ncc(-c4cc(C)cc(F)c4)c(N4CCC(N)CC4)c3-c3nc4ccc(Cl)cc4[nH]3)CCN(CC(=O)NCCOCCOCCOCCOCCC(=O)NCCNc3ncc(-c4cc(C)cc(F)c4)c(N4CCC(N)CC4)c3-c3nc4ccc(Cl)cc4[nH]3)CC2)C(C)C)cc1)C(C)C [Compound 46] | 26.1 nM | 0.54 nM | 85.9 nM
5 | CC[C@H](C)[C@@H]([C@@H](CC(=O)N1CCC[C@H]1[C@H](OC)[C@@H](C)C(=O)N[C@H](C)[C@@H](O)c1ccccc1)OC)N(C)C(=O)[C@@H](NC(=O)[C@H](C(C)C)N(C)C(=O)OCc1ccc(NC(=O)[C@H](CCCNC(N)=O)NC(=O)[C@@H](NC(=O)[C@H](CCC(=O)O)NC(=O)CCOCCOCCOCCOCCC(=O)NCCNc2ncc(-c3cc(C)cc(F)c3)c(N3CCC(N)CC3)c2-c2nc3ccc(Cl)cc3[nH]2)C(C)C)cc1C(=O)NCCN)C(C)C [Compound 47] | 9 nM | 0.091 nM | 18.7 nM
6 | CC[C@H](C)[C@@H]([C@@H](CC(=O)N1CCC[C@H]1[C@H](OC)[C@@H](C)C(=O)N[C@H](C)[C@@H](O)c1ccccc1)OC)N(C)C(=O)[C@@H](NC(=O)[C@H](C(C)C)N(C)C(=O)OCc1ccc(NC(=O)[C@H](CCCNC(N)=O)NC(=O)[C@@H](NC(=O)CCOCCOCCOCCOCCC(=O)NCCNc2ncc(-c3cc(C)cc(F)c3)c(N3CCC(N)CC3)c2-c2nc3ccc(Cl)cc3[nH]2)C(C)C)cc1C(=O)NCCNC(=O)CCOCCOCCOCCOCCN)C(C)C [Compound 48] | 6.9 nM | 0.26 nM | 12.4 nM
7 | CC[C@H](C)[C@@H]([C@@H](CC(=O)N1CCC[C@H]1[C@H](OC)[C@@H](C)C(=O)N[C@H](C)[C@@H](O)c1ccccc1)OC)N(C)C(=O)[C@@H](NC(=O)[C@H](C(C)C)N(C)C(=O)OCc1ccc(NC(=O)[C@H](CCCNC(N)=O)NC(=O)[C@@H](NC(=O)CCOCCOCCOCCOCCC(=O)NCCNc2ncc(-c3cc(C)cc(F)c3)c(N3CCC(N)CC3)c2-c2nc3ccc(Cl)cc3[nH]2)C(C)C)cc1C(=O)NCCN)C(C)C [Compound 50] | 7.7 nM | 0.15 nM | 5.8 nM
8 | CC[C@H](C)[C@@H]([C@@H](CC(=O)N1CCC[C@H]1[C@H](OC)[C@@H](C)C(=O)N[C@H](C)[C@@H](O)c1ccccc1)OC)N(C)C(=O)[C@@H](NC(=O)[C@H](C(C)C)N(C)C(=O)OCc1ccc(NC(=O)[C@H](CCCNC(N)=O)NC(=O)[C@@H](NC(=O)[C@H](CCC(=O)O)NC(=O)CCOCCC(=O)NCCNc2ncc(-c3cc(C)cc(F)c3)c(N3CCC(N)CC3)c2-c2nc3ccc(Cl)cc3[nH]2)C(C)C)cc1C(=O)NC)C(C)C [Compound 51] | 6.3 nM | 0.22 nM | 130 nM
9 | CC[C@H](C)[C@@H]([C@@H](CC(=O)N1CCC[C@H]1[C@H](OC)[C@@H](C)C(=O)N[C@H](C)[C@@H](O)c1ccccc1)OC)N(C)C(=O)[C@@H](NC(=O)[C@H](C(C)C)N(C)C(=O)OCc1ccc(NC(=O)[C@H](CCCNC(N)=O)NC(=O)[C@@H](NC(=O)[C@H](CCC(=O)O)NC(=O)CCOCCOCCOCCOCCC(=O)NCCNc2ncc(-c3cc(C)cc(F)c3)c(N3CCC(N)CC3)c2-c2nc3ccc(Cl)cc3[nH]2)C(C)C)cc1)C(C)C [Compound 52] | 9.1 nM | 0.24 nM | 48 nM
10 | CC[C@H](C)[C@@H]([C@@H](CC(=O)N1CCC[C@H]1[C@H](OC)[C@@H](C)C(=O)N[C@H](C)[C@@H](O)c1ccccc1)OC)N(C)C(=O)[C@@H](NC(=O)[C@H](C(C)C)N(C)C(=O)OCc1ccc(NC(=O)[C@H](CCCNC(N)=O)NC(=O)[C@@H](NC(=O)[C@H](CCC(=O)O)NC(=O)CCOCCOCCOCCOCCC(=O)NCCNc2ncc(-c3cc(C)cc(F)c3)c(N3CCC(N)CC3)c2-c2nc3ccc(Cl)cc3[nH]2)C(C)C)cc1C(=O)NC)C(C)C [Compound 53] | 13 nM | 0.16 nM | 100 nM
11 | CC[C@H](C)[C@@H]([C@@H](CC(=O)N1CCC[C@H]1[C@H](OC)[C@@H](C)C(=O)N[C@H](C)[C@@H](O)c1ccccc1)OC)N(C)C(=O)[C@@H](NC(=O)[C@H](C(C)C)N(C)C(=O)OCc1ccc(NC(=O)[C@H](CCCNC(N)=O)NC(=O)[C@@H](NC(=O)[C@H](CCC(N)=O)NC(=O)CCOCCC(=O)NCCNc2ncc(-c3cc(C)cc(F)c3)c(N3CCC(N)CC3)c2-c2nc3ccc(Cl)cc3[nH]2)C(C)C)cc1C(=O)NC)C(C)C [Compound 54] | 10 nM | 0.17 nM | 17 nM
12 | CC[C@H](C)[C@@H]([C@@H](CC(=O)N1CCC[C@H]1[C@H](OC)[C@@H](C)C(=O)N[C@H](C)[C@@H](O)c1ccccc1)OC)N(C)C(=O)[C@@H](NC(=O)[C@H](C(C)C)N(C)C(=O)OCc1ccc(NC(=O)[C@H](CCCNC(N)=O)NC(=O)[C@@H](NC(=O)CN2CCN(CC(=O)O)CCN(CC(=O)NCCOCCC(=O)NCCNc3ncc(-c4cc(C)cc(F)c4)c(N4CCC(N)CC4)c3-c3nc4ccc(Cl)cc4[nH]3)CC2)C(C)C)cc1)C(C)C [Compound 55] | 8.3 nM | 0.17 nM | 35 nM
